Columns and labels:
[1] = biological target: T1, LRRK2-pSer935 (Homo sapiens, UniProt Q5S007); assay: Western Blot, cultured immune stimulated human PBMCs; assay type: cell-based; conditions: 100 nM, 1hr and 24hrs, n = 10 donors
T1 construct: human primary cells expressing endogenous levels of LRRK2; endogenous in cells; host or cells: human PBMCs from healthy donors
Method: PBMC were isolated from fresh blood collected within a maximal time of 4 hours after blood collection. Leucosep tubes (Greiner 227290) was added 15 ml Ficoll (GE Healthcare 17-440-03) and spun 30 s at 1000 × g. Blood was diluted 1:1 using D-PBS 1X (Gibco 14190), transfered to the Leucosep and centrifuged at 800 g for 15 min without brake. The upper layer corresponding to the diluted plasma was removed and the PBMC layer collected using a pipette or by pouring into a clean BD Falcon 50 ml tube. Cells were re-suspended and washed four times with 10 ml of D-PBS 1X (Gibco 14190) followed by centrifugation at 250 g for 10 min with brake at room temperature. The supernatant was discarded and the cells re-suspended in Complete medium equilibrated to 37 °C. The number of dead and living cells were counted on a Nucleocounter and used to calculate percent viability. […]
HEK293 cells were plated at a density of 1 × 10^6 cells/well in 6-well plates pre-coated for 1 hr at 37 °C with poly-L-lysin. […] The proteins were visually detected by infrared imaging using Odyssey CLx (LI-COR, Nebraska, US). Membranes were scanned and band intensities were quantified using the Image Studio version 3.1.4 (LI-COR, Nebraska).

[2] = test system: Rab10-pThr73; assay: as above; assay type: cell-based; conditions: 100 nM
Method: Freshly isolated PBMCs were plated at a density ranging from 7–20 × 10^6 cells in 10 cm petri dishes (Costar 3262) in RPMI-1640 media (Gibco 61870–010) supplemented with 10% non-heat inactivated FBS, 5 ml Antimycotic (Sigma cat:5965) with or without an immune stimulation cocktail consisting of 400 nM phorbol 12-myristate 13-acetate (PMA) and 100 ng/ml interferon-γ (INF-γ). After 48 hrs in culture the cultures were added a fifth of the volume media containing 5x the final concentration of the respective LRRK2 inhibitor with or without PMA and interferon-γ. […] After 72 hrs in culture the PBMC’s were harvested, pelleted and fresh-frozen on dry-ice. An aliquot of PBMCs was used for assessment of PBMC yield and viability.
Cell pellets were resuspended and solubilized in 100 µL lysis buffer (50 mM Tris hydrochloride, 1 mM magnesium chloride, 1% Triton, 0.1% sodium dodecyl sulfate (SDS), pH 8.0) on ice for 20 minutes and then centrifuged at 20,000 g for 30 minutes at 4 °C. The solubilized crude cell lysate was size mobility separated by SDS-polyacrylamide gel electrophoresis (SDS-PAGE). LRRK2 was separated on a 3–8% Tris-Acetate gel (NuPAGE® Tris-Acetate Mini Gels, Life Technologies, Paisley, UK) and Rab10 and Rab12 were separated using a NuPAGE® Novex 4–12% Bis-Tris Gel (Invitrogen, California, US). An amount of 10 µg total protein was loaded in each well. Proteins were transferred to immobilon-FL PVDF membranes (Millipore, Billerica, US). […] The proteins were visually detected by infrared imaging using Odyssey CLx (LI-COR, Nebraska, US). Membranes were scanned and band intensities were quantified using the Image Studio version 3.1.4 (LI-COR, Nebraska).

[3] = test system: Rab12-pSer106; assay: as above; assay type: cell-based; conditions: 100 nM, 1hr or 24 hrs
Method: Cell pellets were resuspended and solubilized in 100 µL lysis buffer (50 mM Tris hydrochloride, 1 mM magnesium chloride, 1% Triton, 0.1% sodium dodecyl sulfate (SDS), pH 8.0) on ice for 20 minutes and then centrifuged at 20,000 g for 30 minutes at 4 °C. […] The proteins were visually detected by infrared imaging using Odyssey CLx (LI-COR, Nebraska, US). Membranes were scanned and band intensities were quantified using the Image Studio version 3.1.4 (LI-COR, Nebraska).

[4] = test system: T2, JAK2 domain2; assay: KiNativ profiling in human PBMCs; assay type: binding; conditions: Activation Loop
T2 construct: JAK2 domain2; purchased ActivX Technologies (KiNativ)
Outline: (§1)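 KiNativ readout; intact PBMCs dosed with compound at two concentrations (1 µM, 0.1 µM) before profiling.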

[5] = test system: MARK3,MARK4,QIK; assay: KiNativ profiling in human PBMCs; assay type: binding; conditions: Lys1
Outline: as §1

[6] = test system: SGK,SGK2,SGK3; assay: KiNativ profiling in human PBMCs; assay type: binding; conditions: Lys1
Outline: as §1

[7] = test system: AMPKa1,AMPKa2; assay: KiNativ profiling in human PBMCs; assay type: binding
Outline: as §1

[8] = test system: T3, AMPKa1; assay: KiNativ profiling in human PBMCs; assay type: binding; conditions: ATP Loop
T3 construct: purchased ActivX Technologies (KiNativ)
Outline: as §1

[9] = test system: T4, MAPKAPK3; assay: KiNativ profiling in human PBMCs; assay type: binding; conditions: ATP Loop
T4 construct: purchased ActivX Technologies (KiNativ)
Outline: as §1

[10] = test system: T5, CK2a1; assay: KiNativ profiling in human PBMCs; assay type: binding; conditions: Protein Kinase Domain
T5 construct: purchased ActivX Technologies (KiNativ)

[11] = test system: T6, COT; assay: KiNativ profiling in human PBMCs; assay type: binding; conditions: ATP Loop
T6 construct: purchased ActivX Technologies (KiNativ)

[12] = test system: T7, GAK; assay: KiNativ profiling in human PBMCs; assay type: binding; conditions: Lys2
T7 construct: purchased ActivX Technologies (KiNativ)

[13] = test system: MARK3, MARK4; assay: KiNativ profiling in human PBMCs; assay type: binding; conditions: Lys1
[14] = test system: PI4KA, PI4KAP2; assay: KiNativ profiling in human PBMCs; assay type: binding; conditions: ATP

T1 sequence (Q5S007 whole entry): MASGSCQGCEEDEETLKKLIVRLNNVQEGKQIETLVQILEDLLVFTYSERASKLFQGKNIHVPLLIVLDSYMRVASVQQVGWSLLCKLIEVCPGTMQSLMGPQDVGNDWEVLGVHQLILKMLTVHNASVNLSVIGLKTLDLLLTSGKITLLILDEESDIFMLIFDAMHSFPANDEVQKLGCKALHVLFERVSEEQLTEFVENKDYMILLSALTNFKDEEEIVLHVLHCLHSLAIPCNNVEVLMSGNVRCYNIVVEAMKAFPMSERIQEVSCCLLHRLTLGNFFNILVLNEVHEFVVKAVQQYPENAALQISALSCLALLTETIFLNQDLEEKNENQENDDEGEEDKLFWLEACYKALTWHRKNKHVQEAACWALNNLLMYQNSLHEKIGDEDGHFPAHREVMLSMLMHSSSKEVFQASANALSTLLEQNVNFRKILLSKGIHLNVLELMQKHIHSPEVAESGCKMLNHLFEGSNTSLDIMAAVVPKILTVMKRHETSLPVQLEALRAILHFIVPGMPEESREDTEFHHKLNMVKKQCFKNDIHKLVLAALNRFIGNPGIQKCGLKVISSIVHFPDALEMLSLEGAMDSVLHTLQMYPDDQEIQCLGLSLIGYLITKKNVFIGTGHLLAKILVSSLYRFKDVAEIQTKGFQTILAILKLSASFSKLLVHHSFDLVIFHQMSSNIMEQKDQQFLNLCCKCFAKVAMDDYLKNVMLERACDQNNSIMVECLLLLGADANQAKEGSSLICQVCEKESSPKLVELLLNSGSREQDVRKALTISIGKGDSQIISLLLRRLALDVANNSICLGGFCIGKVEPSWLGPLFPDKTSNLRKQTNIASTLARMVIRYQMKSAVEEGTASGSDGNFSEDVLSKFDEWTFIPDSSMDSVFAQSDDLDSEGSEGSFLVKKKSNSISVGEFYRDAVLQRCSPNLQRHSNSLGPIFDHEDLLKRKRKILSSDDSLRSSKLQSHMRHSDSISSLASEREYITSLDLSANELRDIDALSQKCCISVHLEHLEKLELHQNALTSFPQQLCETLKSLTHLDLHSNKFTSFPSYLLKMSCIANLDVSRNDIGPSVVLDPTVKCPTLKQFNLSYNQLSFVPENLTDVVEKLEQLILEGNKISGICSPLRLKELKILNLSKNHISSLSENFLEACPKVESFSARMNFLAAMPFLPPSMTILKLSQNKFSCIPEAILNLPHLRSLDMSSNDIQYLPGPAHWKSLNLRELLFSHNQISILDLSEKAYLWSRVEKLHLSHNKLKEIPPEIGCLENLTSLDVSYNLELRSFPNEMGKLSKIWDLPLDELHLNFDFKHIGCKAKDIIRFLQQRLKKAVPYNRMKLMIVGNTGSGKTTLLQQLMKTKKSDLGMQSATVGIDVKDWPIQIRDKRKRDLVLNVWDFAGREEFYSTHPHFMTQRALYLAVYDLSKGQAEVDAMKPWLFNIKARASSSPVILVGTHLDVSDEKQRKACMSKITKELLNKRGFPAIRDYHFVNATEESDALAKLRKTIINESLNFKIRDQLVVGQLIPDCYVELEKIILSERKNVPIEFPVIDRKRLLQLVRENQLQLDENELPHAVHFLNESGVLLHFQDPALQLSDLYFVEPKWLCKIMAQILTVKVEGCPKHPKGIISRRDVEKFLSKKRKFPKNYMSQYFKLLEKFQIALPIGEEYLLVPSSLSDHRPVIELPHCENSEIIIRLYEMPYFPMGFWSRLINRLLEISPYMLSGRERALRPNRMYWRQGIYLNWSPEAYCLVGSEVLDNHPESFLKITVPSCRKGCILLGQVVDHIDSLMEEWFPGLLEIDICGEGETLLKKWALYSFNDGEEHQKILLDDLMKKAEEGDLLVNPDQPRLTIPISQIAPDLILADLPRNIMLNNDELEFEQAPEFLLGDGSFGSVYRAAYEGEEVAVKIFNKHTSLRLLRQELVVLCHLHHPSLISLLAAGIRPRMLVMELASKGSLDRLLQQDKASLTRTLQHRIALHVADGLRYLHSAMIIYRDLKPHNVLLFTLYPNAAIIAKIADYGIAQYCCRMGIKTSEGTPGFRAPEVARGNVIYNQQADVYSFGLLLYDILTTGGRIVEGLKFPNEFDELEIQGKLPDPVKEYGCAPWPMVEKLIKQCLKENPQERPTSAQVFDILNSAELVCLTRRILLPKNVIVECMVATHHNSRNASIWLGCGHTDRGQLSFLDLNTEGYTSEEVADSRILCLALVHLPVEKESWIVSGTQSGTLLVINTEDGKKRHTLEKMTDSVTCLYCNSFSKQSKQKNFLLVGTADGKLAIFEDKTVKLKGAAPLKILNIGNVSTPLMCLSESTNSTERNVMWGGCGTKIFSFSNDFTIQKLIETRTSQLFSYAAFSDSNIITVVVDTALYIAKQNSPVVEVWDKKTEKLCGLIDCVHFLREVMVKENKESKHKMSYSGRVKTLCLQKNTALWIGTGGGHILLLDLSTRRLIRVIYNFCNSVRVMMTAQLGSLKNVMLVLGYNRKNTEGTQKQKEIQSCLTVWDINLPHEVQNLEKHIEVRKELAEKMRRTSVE

For `Cc1cccc(-c2cc(Nc3ccn(C)n3)nc3[nH]cc(C#N)c23)c1` [Lu AF58786], the “LRRK2 kinase inhibition (LRRK2-pSer935/total LRRK2)” value [1] was “confirmed”, the “inhibition of Rab10 phosphorylation (Rab10-pThr73/total Rab10)” value (shortened to “inhibition … (Rab10-pThr73/total Rab10)”) ([2]; 1 hr) was “not at 1 hr” and the “inhibition … (Rab10-pThr73/total Rab10)” value ([2]; 24 hrs) was “able to inhibit Rab10 phosphorylation at 24 hrs”. For the same molecule, the “inhibition of Rab12 phosphorylation (Rab12-pSer106)” value [3] was “not able to significant inhibit”, the Inhibition ([4]; 0.1µM) was 16.1% and the Inhibition ([4]; 1µM) was -3.5%. For the same molecule, the Inhibition ([5]; 0.1µM) was 3.0%, the Inhibition ([5]; 1µM) was 5.7% and the Inhibition ([6]; 0.1µM) was 7.0%. It also gave an Inhibition ([6]; 1µM) of 0.243%.
With `Cn1cc(-c2c[nH]c3ncnc(N4CCOCC4)c23)cc1C#N` [PFE-360] the “LRRK2 kinase inhibition (LRRK2-pSer935/total LRRK2)” value [1] was “confirmed”, the “inhibition … (Rab10-pThr73/total Rab10)” value ([2]; 1 hr) was “not at 1 hr” and the “inhibition … (Rab10-pThr73/total Rab10)” value ([2]; 24 hrs) was “able to inhibit Rab10 phosphorylation at 24 hrs”. The “inhibition of Rab12 phosphorylation (Rab12-pSer106)” value [3] was “not able to significant inhibit”, the “% Inhibition” value ([7]; 0.1µM, Lys1) was 0.8% and the “% Inhibition” value ([7]; 0.1µM, Lys2) was -17.7%. The “% Inhibition” value ([7]; 1µM, Lys1) was -2.7%, the “% Inhibition” value ([7]; 1µM, Lys2) was 7.4% and the “% Inhibition” value ([8]; 0.1µM) was -1%. The “% Inhibition” value ([8]; 1µM) was 4%, the “% Inhibition” value ([9]; 0.1µM) was -5.1% and the “% Inhibition” value ([9]; 1µM) was -8.3%. For the same molecule, the “% Inhibition” value ([10]; 0.1µM) was -27.7%, the “% Inhibition” value ([10]; 1µM) was -26.5% and the “% Inhibition” value ([11]; 0.1µM) was 26.3%. The “% Inhibition” value ([11]; 1µM) was 7.7%, the “% Inhibition” value ([12]; 0.1µM) was -12.4% and the “% Inhibition” value ([12]; 1µM) was -36.6%. For the same molecule, the “% Inhibition” value ([13]; 0.1µM) was 0.7%, the “% Inhibition” value ([13]; 1µM) was 3.6% and the “% Inhibition” value ([14]; 0.1µM) was -6%. For the same molecule, the “% Inhibition” value ([14]; 1µM) was 4.4%.

Source: publication PMC5578959, “Selective LRRK2 kinase inhibition reduces phosphorylation of endogenous Rab10 and Rab12 in human peripheral mononuclear blood cells” (Scientific Reports, 2017)
